Earlier results, collected in PMC11675001, “Monovalent and Divalent Designs of Copper Radiotheranostics Targeting Fibroblast Activation Protein in Cancer” (Cancers, 2024).

Columns and labels:
[1] = after 3 h; ref European Journal of Nuclear Medicine and Molecular Imaging (2022): 1-11 [3]; Pharmaceuticals 16, no. 8 (2023): 1138 [4]
[2] = ref European Journal of Nuclear Medicine and Molecular Imaging (2022): 1-11 [3]; Pharmaceuticals 16, no. 8 (2023): 1138 [4]

Question: For `CN(CCCN1CCN(C(=O)CN2CCN(CC(=O)[O-])CCN(CC(=O)[O-])CCN(CC(=O)[O-])CC2)CC1)c1ccc2nccc(C(=O)NCC(=O)N3CC(F)(F)C[C@H]3C#N)c2c1.[68Ga+3]` [[68Ga]Ga-FAPI-46], which Stability [1] is on record?
Answer: > 95.3%

Question: What about the “Partition coefficient (LogP)” value [2] of the same molecule?
Answer: −3.57
